Measurements taken from PubChem BioAssay AID264 (DTP/NCI, 2004).
Values joined by “and” are separate entries in the source; they are usually repeats but may differ in a detail not shown here. Identical values can stand only once. Records with an inconclusive call do not appear.

Test system: nude mice, LX-1 lung xenograft intrarenal, tumor weight T/C
Experiment: NCI In Vivo Anticancer Drug Screen. Data for tumor model Human Lung LX-1 Xenograft (intrarenal inoculation) in NU/NU Swiss (nude) mice
Details: endpoint: mean tumor weight change, higher = larger tumour
Procedure, shortened: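 Activity was scored by measuring tumors in treated animals and in vehicle controls, then reporting the treated result as a fraction of the control result.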

[1] = dose: 2400.0 mg/kg/injection, schedule: Q04DX003 (sc), vehicle: saline with Tween-80
[2] = dose: 800.0 mg/kg/injection, schedule: Q01DX010 (sc), vehicle: saline
[3] = dose: 25.0 mg/kg/injection, schedule: Q01DX010 (sc), vehicle: saline
[4] = dose: 50.0 mg/kg/injection, schedule: Q01DX010 (sc), vehicle: saline
[5] = dose: 100.0 mg/kg/injection, schedule: Q04DX003 (sc), vehicle: saline
[6] = dose: 300.0 mg/kg/injection, schedule: Q04DX003 (sc), vehicle: saline
[7] = dose: 600.0 mg/kg/injection, schedule: Q04DX003 (sc), vehicle: saline

For `CCSC(=O)N1c2ccc(OC)cc2C=CC1C#N` (stereo not given), the T/C [1] was 32 % of control (2×) and 40 % of control and the T/C (dose: 4800.0 mg/kg/injection, schedule: Q04DX003 (sc), vehicle: saline with Tween-80) was 16 % of control and 17 % of control and 23 % of control.
In the case of `COc1cc(C2c3cc4c(cc3C(O)C(CO)C2CO)OCO4)cc(OC)c1OC` (stereo not given), the T/C (dose: 300.0 mg/kg/injection, schedule: Q04DX003 (sc), vehicle: saline with Tween-80) is reported as 103 % of control, the T/C (dose: 600.0 mg/kg/injection, schedule: Q04DX003 (sc), vehicle: saline with Tween-80) is reported as 95 % of control and the T/C (dose: 1200.0 mg/kg/injection, schedule: Q04DX003 (sc), vehicle: saline with Tween-80) is reported as 90 % of control. For the same molecule, the T/C [1] was 38 % of control.
`CCC1OCC(C(Cl)CCl)O1` (stereo not given) was tested, and the T/C (dose: 300.0 mg/kg/injection, schedule: Q04DX003 (sc), vehicle: Klucel (hydroxypropylcellulose) (HPC)) was 115 % of control, the T/C (dose: 600.0 mg/kg/injection, schedule: Q04DX003 (sc), vehicle: Klucel (hydroxypropylcellulose) (HPC)) was 88 % of control and the T/C (dose: 1200.0 mg/kg/injection, schedule: Q04DX003 (sc), vehicle: Klucel (hydroxypropylcellulose) (HPC)) was 26 % of control.
In the case of `O=C1c2ccccc2C(=O)c2c(NCCNCCO)ccc(NCCNCCO)c21`, the T/C (dose: 4.0 mg/kg/injection, schedule: Q01DX010 (sc), vehicle: water) is reported as 54 % of control and the T/C (dose: 16.0 mg/kg/injection, schedule: Q01DX010 (sc), vehicle: water) is reported as 65 % of control.
`CC(=O)N(C)c1ccc(Nc2cc(C)[nH]c3ccc4ncnc4c23)cc1` was tested, and the T/C (dose: 50.0 mg/kg/injection, schedule: Q04DX003 (sc), vehicle: saline with Tween-80) was 101 % of control, the T/C (dose: 100.0 mg/kg/injection, schedule: Q04DX003 (sc), vehicle: saline with Tween-80) was 71 % of control and the T/C (dose: 200.0 mg/kg/injection, schedule: Q04DX003 (sc), vehicle: saline with Tween-80) was 56 % of control.
`C[n+]1ccc(Nc2ccc(NC(=O)c3ccc(Nc4cc[n+](C)c5ccc(N)cc45)cc3)cc2)cc1` was tested, and the T/C (dose: 12.5 mg/kg/injection, schedule: Q04DX003 (sc), vehicle: distilled water + Tween-80) was 80 % of control, the T/C (dose: 25.0 mg/kg/injection, schedule: Q04DX003 (sc), vehicle: distilled water + Tween-80) was 86 % of control and the T/C (dose: 50.0 mg/kg/injection, schedule: Q04DX003 (sc), vehicle: distilled water + Tween-80) was 25 % of control. For the same molecule, the T/C (dose: 100.0 mg/kg/injection, schedule: Q04DX003 (sc), vehicle: distilled water + Tween-80) was 53 % of control.
In the case of `O=CN(SSN(C=O)C1CCCCC1)C1CCCCC1`, the T/C (dose: 50.0 mg/kg/injection, schedule: Q01DX010 (sc), vehicle: saline with Tween-80) is reported as 395 % of control, the T/C (dose: 100.0 mg/kg/injection, schedule: Q01DX010 (sc), vehicle: saline with Tween-80) is reported as 104 % of control and the T/C (dose: 200.0 mg/kg/injection, schedule: Q01DX010 (sc), vehicle: saline with Tween-80) is reported as 234 % of control. For the same molecule, the T/C (dose: 400.0 mg/kg/injection, schedule: Q01DX010 (sc), vehicle: saline with Tween-80) was 97 % of control and 122 % of control, the T/C (dose: 800.0 mg/kg/injection, schedule: Q01DX010 (sc), vehicle: saline with Tween-80) was 48 % of control and the T/C (dose: 1600.0 mg/kg/injection, schedule: Q01DX010 (sc), vehicle: saline with Tween-80) was 54 % of control.
In the case of `COC1/C=C/C=C(/C)Cc2cc(O)c(Cl)c(c2)N(C)C(=O)CC(OC(=O)C(C)C)C2(C)OC2C(C)C2CC1(O)NC(=O)O2` (stereo not given), the T/C (dose: 1.0 mg/kg/injection, schedule: Q04DX003 (sc), vehicle: saline + alcohol) is reported as 81 % of control, the T/C (dose: 2.0 mg/kg/injection, schedule: Q04DX003 (sc), vehicle: saline + alcohol) is reported as 67 % of control and the T/C (dose: 4.0 mg/kg/injection, schedule: Q04DX003 (sc), vehicle: saline + alcohol) is reported as 58 % of control.
`Nc1n[nH]c(N)n1` was tested, and the T/C (dose: 200.0 mg/kg/injection, schedule: Q01DX010 (sc), vehicle: saline) was 109 % of control, the T/C (dose: 400.0 mg/kg/injection, schedule: Q01DX010 (sc), vehicle: saline) was 106 % of control and the T/C [2] was 84 % of control.
With `C1OC1C1CO1` (stereo not given) the T/C (dose: 12.5 mg/kg/injection, schedule: Q01DX010 (sc), vehicle: saline) was 106 % of control, the T/C [3] was 80 % of control and the T/C [4] was 66 % of control.
For `CC(C)[NH-].CC(C)[NH-].[Cl][Pt+2][Cl]`, the T/C (dose: 25.0 mg/kg/injection, schedule: Q01DX010 (sc), vehicle: dextrose) was 48 % of control, the T/C (dose: 50.0 mg/kg/injection, schedule: Q01DX010 (sc), vehicle: dextrose) was 50 % of control and the T/C (dose: 100.0 mg/kg/injection, schedule: Q01DX010 (sc), vehicle: dextrose) was 71 % of control.
With `Cc1ccc2c(ccc(CC(=S)[S-])[n+]2C)c1` the T/C (dose: 50.0 mg/kg/injection, schedule: Q01DX010 (sc), vehicle: Klucel (hydroxypropylcellulose) (HPC)) was 56 % of control, the T/C (dose: 100.0 mg/kg/injection, schedule: Q01DX010 (sc), vehicle: Klucel (hydroxypropylcellulose) (HPC)) was 99 % of control and the T/C (dose: 200.0 mg/kg/injection, schedule: Q01DX010 (sc), vehicle: Klucel (hydroxypropylcellulose) (HPC)) was 207 % of control. The T/C (dose: 400.0 mg/kg/injection, schedule: Q01DX010 (sc), vehicle: Klucel (hydroxypropylcellulose) (HPC)) was 72 % of control.
In the case of `c1csc(C[N+]23CN4CN(CN(C4)C2)C3)c1`, the T/C [5] is reported as 112 % of control, the T/C (dose: 200.0 mg/kg/injection, schedule: Q04DX003 (sc), vehicle: saline) is reported as 100 % of control and the T/C (dose: 400.0 mg/kg/injection, schedule: Q04DX003 (sc), vehicle: saline) is reported as 92 % of control.
With `NC1=NCN(C2OC(CO)C(O)C2O)C(=O)N1` (stereo not given) the T/C [3] was 117 % of control, the T/C [4] was 174 % of control and the T/C (dose: 83.3 mg/kg/injection, schedule: Q04DX003 (ip), vehicle: saline) was 117 % of control. The T/C (dose: 100.0 mg/kg/injection, schedule: Q01DX010 (ip), vehicle: saline) was 62 % of control, the T/C (dose: 100.0 mg/kg/injection, schedule: Q01DX010 (sc), vehicle: saline) was 86 % of control and the T/C (dose: 166.66 mg/kg/injection, schedule: Q04DX003 (ip), vehicle: saline) was 89 % of control. The T/C (dose: 333.33 mg/kg/injection, schedule: Q04DX003 (ip), vehicle: saline) was 56 % of control and the T/C (dose: 666.65 mg/kg/injection, schedule: Q04DX003 (ip), vehicle: saline) was 39 % of control.
In the case of `COC(=O)C(N)Cc1ccc(O)c(O)c1` (stereo not given), the T/C [6] is reported as 118 % of control, the T/C [7] is reported as 108 % of control and the T/C (dose: 1200.0 mg/kg/injection, schedule: Q04DX003 (sc), vehicle: saline) is reported as 106 % of control. For the same molecule, the T/C (dose: 2400.0 mg/kg/injection, schedule: Q04DX003 (sc), vehicle: saline) was 108 % of control.
For `CN(N=O)C(N)=O`, the T/C (dose: 12.5 mg/kg/injection, schedule: Q01DX010 (sc), vehicle: saline with Tween-80) was -64 % of control, the T/C (dose: 12.5 mg/kg/injection, schedule: Q04DX003 (sc), vehicle: saline) was 19 % of control and the T/C (dose: 25.0 mg/kg/injection, schedule: Q01DX010 (sc), vehicle: saline with Tween-80) was -69 % of control. The T/C (dose: 25.0 mg/kg/injection, schedule: Q04DX003 (sc), vehicle: saline) was 7 % of control, the T/C (dose: 50.0 mg/kg/injection, schedule: Q04DX003 (sc), vehicle: saline) was 12 % of control and the T/C [5] was 1 % of control.
`CC(=O)NC(C=O)OCC=O` (stereo not given) was tested, and the T/C (dose: 100.0 mg/kg/injection, schedule: Q04DX003 (sc), vehicle: water) was 116 % of control, the T/C (dose: 200.0 mg/kg/injection, schedule: Q04DX003 (sc), vehicle: water) was 112 % of control and the T/C (dose: 400.0 mg/kg/injection, schedule: Q04DX003 (sc), vehicle: water) was 121 % of control.
`CN(C)C=O` was tested, and the T/C [2] was 91 % of control and the T/C (dose: 1600.0 mg/kg/injection, schedule: Q01DX010 (sc), vehicle: saline) was 74 % of control.
With `CC1=NN(c2cccc(S(=O)(=O)O)c2)C(=O)C1N=Nc1cc(Cl)cc(S(=O)(=O)O)c1O.CC1=NN(c2cccc(S(=O)(=O)O)c2)C(=O)C1N=Nc1cc(Cl)cc(S(=O)(=O)O)c1O.[Cr]` (stereo not given) the T/C (dose: 150.0 mg/kg/injection, schedule: Q04DX003 (sc), vehicle: saline) was 171 % of control, the T/C [6] was 152 % of control and the T/C [7] was 110 % of control.
In the case of `Nc1ccc(C(OC(=O)c2cc3ccccc3c(Cc3c(O)c(C(=O)OC(c4ccc(N)cc4)(c4ccc(N)cc4)c4ccc(N)cc4)cc4ccccc34)c2O)(c2ccc(N)cc2)c2ccc(N)cc2)cc1`, the T/C (dose: 36.0 mg/kg/injection, schedule: Q04DX003 (sc), vehicle: saline with Tween-80) is reported as 87 % of control, the T/C (dose: 72.0 mg/kg/injection, schedule: Q04DX003 (sc), vehicle: saline with Tween-80) is reported as 116 % of control and the T/C (dose: 144.0 mg/kg/injection, schedule: Q04DX003 (sc), vehicle: saline with Tween-80) is reported as 67 % of control. The T/C (dose: 288.0 mg/kg/injection, schedule: Q04DX003 (sc), vehicle: saline with Tween-80) was 58 % of control.
In the case of `CCN(CC)CCCNc1nccc2c(C)c3[nH]c4ccncc4c3cc12`, the T/C (dose: 5.0 mg/kg/injection, schedule: Q01DX010 (sc), vehicle: other) is reported as 59 % of control and the T/C (dose: 10.0 mg/kg/injection, schedule: Q01DX010 (sc), vehicle: other) is reported as 49 % of control.
